# Assay results from ChEMBL document CHEMBL1833968, “Synthesis of novel triplet drugs with 1,3,5-trioxazatriquinane skeletons and their pharmacologies. Part 2: Synthesis of novel triplet drugs with the epoxymethano structure (capped homotriplet)” (Bioorg Med Chem Lett, 2011).
# The source made the active and inactive calls. The rule behind the calls is not given here.
# Legend:
# Mus musculus [1] = species: Mus musculus; experiment: Selectivity ratio of Ki for mouse delta opioid receptor to mouse mu receptor
# [2] = Selectivity ratio of Ki for guinea pig kappa opioid receptor to mouse mu opioid receptor
# [3] = target: Delta-type opioid receptor (Mus musculus, UniProt P32300); experiment: Displacement of [3H]DPDPE from mouse delta opioid receptor in whole brain without cerebellum
# Chain of Delta-type opioid receptor (P32300 whole entry): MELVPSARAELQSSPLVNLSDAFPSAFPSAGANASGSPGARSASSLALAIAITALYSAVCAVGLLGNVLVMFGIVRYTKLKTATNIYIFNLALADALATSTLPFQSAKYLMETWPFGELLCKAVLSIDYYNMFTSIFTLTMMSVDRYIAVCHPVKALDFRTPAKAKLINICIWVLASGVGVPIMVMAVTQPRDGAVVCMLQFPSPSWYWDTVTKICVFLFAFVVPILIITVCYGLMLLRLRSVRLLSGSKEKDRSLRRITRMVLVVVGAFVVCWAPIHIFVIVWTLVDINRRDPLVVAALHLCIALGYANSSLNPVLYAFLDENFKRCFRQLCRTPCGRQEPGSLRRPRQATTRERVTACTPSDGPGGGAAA
# Mu-type opioid receptor = Mu-type opioid receptor (Mus musculus, UniProt P42866); experiment: Displacement of [3H]DAMGO from mouse mu opioid receptor in whole brain without cerebellum
# Chain of Mu-type opioid receptor (P42866 whole entry): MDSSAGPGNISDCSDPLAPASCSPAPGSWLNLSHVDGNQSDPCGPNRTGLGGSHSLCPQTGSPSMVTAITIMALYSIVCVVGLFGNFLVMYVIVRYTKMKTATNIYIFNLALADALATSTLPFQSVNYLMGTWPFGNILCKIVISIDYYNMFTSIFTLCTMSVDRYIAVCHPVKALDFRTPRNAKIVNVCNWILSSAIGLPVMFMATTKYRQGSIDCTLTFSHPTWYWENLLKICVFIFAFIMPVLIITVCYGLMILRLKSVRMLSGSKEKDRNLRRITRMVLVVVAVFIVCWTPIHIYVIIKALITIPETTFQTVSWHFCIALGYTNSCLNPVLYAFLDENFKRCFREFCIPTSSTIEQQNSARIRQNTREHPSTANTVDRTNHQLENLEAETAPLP
# [4] = target: Kappa-type opioid receptor (Cavia porcellus, UniProt P41144); experiment: Displacement of [3H]U69,593 from guinea pig kappa opioid receptor in cerebellum
# Chain of Kappa-type opioid receptor (P41144 whole entry): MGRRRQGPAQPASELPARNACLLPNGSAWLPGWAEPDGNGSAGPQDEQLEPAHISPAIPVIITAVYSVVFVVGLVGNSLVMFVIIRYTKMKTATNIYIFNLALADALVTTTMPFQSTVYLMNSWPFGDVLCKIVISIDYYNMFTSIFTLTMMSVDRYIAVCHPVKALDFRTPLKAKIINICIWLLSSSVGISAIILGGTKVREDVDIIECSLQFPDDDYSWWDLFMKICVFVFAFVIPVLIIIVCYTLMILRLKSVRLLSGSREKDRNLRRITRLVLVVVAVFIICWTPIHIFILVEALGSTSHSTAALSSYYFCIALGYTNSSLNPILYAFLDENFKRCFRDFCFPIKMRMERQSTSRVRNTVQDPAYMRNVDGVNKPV
# Mus musculus [5] = experiment: Ratio of morphine ED50 to compound ED50 for antinociceptive activity in sc dosed mouse assessed as inhibition of acetic acid-induced writhing administered 15 mins before acetic acid challenge measured after 10 mins; format: functional
# Mus musculus [6] = experiment: Antinociceptive activity in sc dosed mouse assessed as inhibition of acetic acid-induced writhing administered 15 mins before acetic acid challenge measured after 10 mins relative to control; format: functional
SMILES,Ratio Ki (Mus musculus [1]),Ratio Ki [2],Ki [3],Ki (Mu-type opioid receptor),Ki [4],Ratio ED50 (Mus musculus [5]),ED50 (Mus musculus [6]),inhibition (Mus musculus [6])
Oc1ccc2c3c1O[C@H]1[C@]4(CC[C@@]5(O)[C@@H](C2)N(CC2CC2)CC[C@]315)O[C@H]1CO[C@@H]2N1[C@H]4O[C@]21CC[C@@]2(O)[C@H]3Cc4ccc(O)c5c4[C@@]2(CCN3CC2CC2)[C@H]1O5,33.6,5.73,16.2 nM,0.48 nM,2.75 nM,–,–,–
Oc1ccc2c3c1O[C@@H]1[C@]34CCN(CC3CC3)[C@H](C2)[C@]4(O)CC[C@@]12C=N[C@@H]([C@]1(O)CC[C@@]3(O)[C@H]4Cc5ccc(O)c6c5[C@@]3(CCN4CC3CC3)[C@H]1O6)O2,38.4,1.61,39.6 nM,1.03 nM,1.66 nM,–,–,–
Oc1ccc2c3c1O[C@H]1[C@]4(CC[C@@]5(O)[C@@H](C2)N(CC2CC2)CC[C@]315)O[C@@H]1CO[C@H]2N1[C@@H]4O[C@]21CC[C@@]2(O)[C@H]3Cc4ccc(O)c5c4[C@@]2(CCN3CC2CC2)[C@H]1O5,–,6.47,> 1000 nM,38.2 nM,247 nM,–,–,–
Oc1ccc2c3c1O[C@H]1[C@]4(CC[C@@]5(O)[C@@H](C2)N(CC2CCC2)CC[C@]315)O[C@H]1CO[C@@H]2N1[C@H]4O[C@]21CC[C@@]2(O)[C@H]3Cc4ccc(O)c5c4[C@@]2(CCN3CC2CCC2)[C@H]1O5,19.2,67.7,50 nM,2.6 nM,176 nM,–,–,–
Oc1ccc2c3c1O[C@@H]1[C@]34CCN(CC3CC3)[C@H](C2)[C@]4(O)CC[C@@]12C=N[C@H]([C@]1(O)CC[C@@]3(O)[C@H]4Cc5ccc(O)c6c5[C@@]3(CCN4CC3CC3)[C@H]1O6)O2,28.3,0.61,53.7 nM,1.9 nM,1.16 nM,–,–,–
Oc1ccc2c3c1O[C@H]1[C@]4(CC[C@H]5[C@@H](C2)N(CC2CC2)CC[C@@]351)O[C@H]1CO[C@@H]2N1[C@H]4O[C@]21CC[C@H]2[C@H]3Cc4ccc(O)c5c4[C@@]2(CCN3CC2CC2)[C@H]1O5,10.8,8.84,7.8 nM,0.719 nM,6.36 nM,–,–,–
CN1CC[C@]23c4c5ccc(O)c4O[C@H]2[C@]2(CC[C@@]3(O)[C@H]1C5)O[C@H]1CO[C@@H]3N1[C@H]2O[C@]31CC[C@@]2(O)[C@H]3Cc4ccc(O)c5c4[C@@]2(CCN3C)[C@H]1O5,25.3,161,52.9 nM,2.09 nM,337 nM,4,0.14 mg/kg,Dose-dependent effect
Oc1ccc2c(c1)[C@]13CCN(CC4CC4)[C@H](C2)[C@]1(O)CC[C@@]1(C3)O[C@H]2CO[C@@H]3N2[C@H]1O[C@]31CC[C@@]2(O)[C@H]3Cc4ccc(O)cc4[C@@]2(CCN3CC2CC2)C1,7.76,11.2,5.98 nM,0.771 nM,8.67 nM,–,–,–
C=CCN1CC[C@]23c4c5ccc(O)c4O[C@H]2C(=O)CC[C@@]3(O)[C@H]1C5,–,–,–,–,–,–,–,inactive
CC(C)CN1CC[C@]23c4c5ccc(O)c4O[C@H]2[C@]2(CC[C@@]3(O)[C@H]1C5)O[C@H]1CO[C@@H]3N1[C@H]2O[C@]31CC[C@@]2(O)[C@H]3Cc4ccc(O)c5c4[C@@]2(CCN3CC(C)C)[C@H]1O5,–,4.7,> 1000 nM,25.3 nM,119 nM,–,–,–
